Data taken from ChEMBL document CHEMBL5365501, “Brain-penetrant cyanoindane and cyanotetralin inhibitors of G2019S-LRRK2 kinase activity” (Bioorg Med Chem Lett, 2023).

Key:
[1] = molecular target: T1, Leucine-rich repeat serine/threonine-protein kinase 2 (Homo sapiens, UniProt Q5S007, G2019S); experiment: Inhibition of LRRK2 G2019S mutant (unknown origin) using LRRKtide as substrate pre-incubated for 15 min and measured after 1 hrs by HTRF assay
[2] = molecular target: T1, Leucine-rich repeat serine/threonine-protein kinase 2; experiment: Inhibition of human LRRK2 G2019S mutant phosphorylation at S1292 in human HEK293 cells incubated for 2 hrs; type: cell-based
[3] = Stability in rat liver microsomes assessed as half life at 0.5 uM incubated up to 45 min in the presence of NADPH regenerating system by LC MS/MS analysis; type: ADME, Microsome
MDR1 (P-gp) = experiment: Efflux ratio of permeability across basolateral to apical side over apical to basolateral side in dog MDCKII-MDR1 cells; type: ADME, cell-based, Canis lupus familiaris; settings: MDCK-MDR1
[4] = molecular target: T1, Leucine-rich repeat serine/threonine-protein kinase 2; experiment: Inhibition of phosphorylated human LRRK2 G2019S mutant at S935 in human HEK293 cells incubated for 2 hrs; type: cell-based
[5] = Stability in human liver microsomes assessed as half life at 0.5 uM incubated up to 45 min in the presence of NADPH regenerating system by LC MS/MS analysis; type: ADME, Microsome

T1 sequence (Q5S007 whole entry G2019S): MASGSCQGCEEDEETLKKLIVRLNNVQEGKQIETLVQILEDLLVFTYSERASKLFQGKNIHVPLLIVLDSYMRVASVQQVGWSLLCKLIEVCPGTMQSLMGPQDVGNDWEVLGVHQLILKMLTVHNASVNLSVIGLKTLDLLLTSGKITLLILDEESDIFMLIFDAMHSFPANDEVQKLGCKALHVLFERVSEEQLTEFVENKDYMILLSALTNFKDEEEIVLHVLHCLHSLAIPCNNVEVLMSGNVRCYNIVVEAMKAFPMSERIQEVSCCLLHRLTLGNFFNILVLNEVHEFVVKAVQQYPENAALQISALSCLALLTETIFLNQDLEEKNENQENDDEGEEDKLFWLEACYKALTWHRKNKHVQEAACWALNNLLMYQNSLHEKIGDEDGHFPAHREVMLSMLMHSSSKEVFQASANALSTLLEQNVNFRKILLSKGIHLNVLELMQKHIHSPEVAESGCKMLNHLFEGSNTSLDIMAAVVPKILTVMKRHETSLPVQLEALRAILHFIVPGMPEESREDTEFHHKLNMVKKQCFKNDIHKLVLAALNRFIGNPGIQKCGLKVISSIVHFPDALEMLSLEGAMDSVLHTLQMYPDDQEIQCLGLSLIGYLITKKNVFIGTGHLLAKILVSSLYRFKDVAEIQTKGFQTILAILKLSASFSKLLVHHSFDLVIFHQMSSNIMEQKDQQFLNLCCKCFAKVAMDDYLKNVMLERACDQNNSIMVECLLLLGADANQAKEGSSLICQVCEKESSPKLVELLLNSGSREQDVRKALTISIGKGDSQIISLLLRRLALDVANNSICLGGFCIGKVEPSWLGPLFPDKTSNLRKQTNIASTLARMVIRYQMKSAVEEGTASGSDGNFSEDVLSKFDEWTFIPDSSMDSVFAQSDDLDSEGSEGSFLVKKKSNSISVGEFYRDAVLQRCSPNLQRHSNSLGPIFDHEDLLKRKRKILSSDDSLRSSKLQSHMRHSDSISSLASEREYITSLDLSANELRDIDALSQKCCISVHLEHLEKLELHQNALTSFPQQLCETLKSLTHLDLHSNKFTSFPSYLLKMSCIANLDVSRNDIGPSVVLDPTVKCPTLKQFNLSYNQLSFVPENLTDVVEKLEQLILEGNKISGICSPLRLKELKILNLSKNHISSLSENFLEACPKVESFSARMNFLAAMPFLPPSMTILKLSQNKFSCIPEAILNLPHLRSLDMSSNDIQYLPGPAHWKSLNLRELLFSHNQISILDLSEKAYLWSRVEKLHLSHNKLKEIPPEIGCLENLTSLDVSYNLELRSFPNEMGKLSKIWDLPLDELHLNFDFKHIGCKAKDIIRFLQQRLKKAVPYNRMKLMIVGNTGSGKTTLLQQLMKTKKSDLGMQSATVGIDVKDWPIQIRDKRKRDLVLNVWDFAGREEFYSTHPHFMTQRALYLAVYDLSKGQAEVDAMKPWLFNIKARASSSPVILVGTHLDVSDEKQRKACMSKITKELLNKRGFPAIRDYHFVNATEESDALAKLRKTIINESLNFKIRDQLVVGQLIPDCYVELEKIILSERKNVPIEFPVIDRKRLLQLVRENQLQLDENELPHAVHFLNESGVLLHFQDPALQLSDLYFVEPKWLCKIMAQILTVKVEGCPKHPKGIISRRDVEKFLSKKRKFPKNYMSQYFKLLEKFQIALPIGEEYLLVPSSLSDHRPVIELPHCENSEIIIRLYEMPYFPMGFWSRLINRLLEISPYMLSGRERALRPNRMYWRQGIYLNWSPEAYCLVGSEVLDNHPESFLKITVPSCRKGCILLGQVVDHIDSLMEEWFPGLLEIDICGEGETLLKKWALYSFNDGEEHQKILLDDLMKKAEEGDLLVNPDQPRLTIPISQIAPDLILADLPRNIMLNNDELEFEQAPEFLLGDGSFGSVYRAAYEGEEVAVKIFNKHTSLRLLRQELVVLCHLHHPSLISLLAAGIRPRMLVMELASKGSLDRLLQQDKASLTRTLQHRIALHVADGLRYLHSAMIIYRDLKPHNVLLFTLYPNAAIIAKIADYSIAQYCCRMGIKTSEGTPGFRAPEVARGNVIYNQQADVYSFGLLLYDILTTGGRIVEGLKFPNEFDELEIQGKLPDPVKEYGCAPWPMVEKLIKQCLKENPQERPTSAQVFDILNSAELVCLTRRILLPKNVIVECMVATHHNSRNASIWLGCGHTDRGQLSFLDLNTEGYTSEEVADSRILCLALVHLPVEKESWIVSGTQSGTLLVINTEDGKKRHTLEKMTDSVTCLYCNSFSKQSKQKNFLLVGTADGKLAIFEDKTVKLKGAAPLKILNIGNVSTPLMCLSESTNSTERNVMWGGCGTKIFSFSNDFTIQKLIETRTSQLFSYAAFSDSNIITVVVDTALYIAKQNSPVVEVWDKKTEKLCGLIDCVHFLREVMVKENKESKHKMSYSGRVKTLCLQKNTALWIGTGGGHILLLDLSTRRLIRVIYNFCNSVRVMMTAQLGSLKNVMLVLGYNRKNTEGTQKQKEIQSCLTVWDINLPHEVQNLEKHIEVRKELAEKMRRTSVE

| Structure (SMILES) | IC50 [1] [nM] | other results |
| --- | --- | --- |
| CC1=C(C(=O)Nc2ccc3[nH]ncc3c2)Cn2nnnc2N1C | 35 |  |
| CC1=C(C(=O)Nc2ccc3[nH]nc(-c4ccccc4)c3c2)C(C)(C)n2nnnc2N1C | 3 |  |
| N#Cc1ccc2c(c1)CC[C@@H]2Nc1ccc2[nH]nc(-c3ccoc3)c2c1 | 11 | IC50 [2]: 57 nM; half-life at 0.5 µM [3]: 54 min; efflux ratio (MDR1 (P-gp)): 1.8; IC50 [4]: 96 nM; half-life at 0.5 µM [5]: 25 min |
| COCc1ccc(C(=O)Nc2ccc3[nH]nc(-c4ccoc4)c3c2)cc1 | 98 |  |
| CS(=O)(=O)c1ccc(C(=O)Nc2ccc3[nH]nc(-c4ccoc4)c3c2)cc1 | 49 |  |
| Cc1n[nH]c2ccc(O[C@@H]3CCc4cc(C#N)ccc43)cc12 | 62 |  |
| N#Cc1ccc(C(=O)Nc2ccc3[nH]nc(C4CC4)c3c2)cc1 | 790 |  |
| Cn1ncc2cc(C(=O)Nc3ccc4[nH]nc(-c5ccoc5)c4c3)ccc21 | 13 | efflux ratio (MDR1 (P-gp)): 9.2 |
| N#Cc1ccc2c(c1)[C@@H](Nc1ccc3[nH]nc(Br)c3c1)CCC2 | 14 |  |
| N#Cc1ccc2c(c1)CC[C@H]2Nc1ccc2[nH]nc(-c3ccoc3)c2c1 | 63 |  |
| N#Cc1ccc2c(c1)CCC[C@@H]2Nc1ccc2[nH]nc(-c3cnco3)c2c1 | 0.9 |  |
| N#Cc1ccc2c(c1)CCC[C@@H]2Oc1ccc2[nH]nc(-c3ccnc(N4CCOCC4)c3)c2c1 | 1.4 |  |
| O=C(Nc1ccc2[nH]nc(-c3ccoc3)c2c1)c1cnc2cnccc2c1 | 173 |  |
| O=C(Nc1ccc2[nH]nc(-c3ccoc3)c2c1)c1nc2cnccc2s1 | 74 |  |
| N#Cc1ccc2c(c1)C(=O)N(c1ccc3[nH]nc(C4CC4)c3c1)C2=O | > 7600 |  |
| N#Cc1ccc2c(c1)CCC[C@@H]2Oc1ccc2[nH]nc(-c3cnco3)c2c1 | < 0.2 | IC50 [2]: 3.5 nM; half-life at 0.5 µM [3]: 42 min; efflux ratio (MDR1 (P-gp)): 1.7; IC50 [4]: 6.2 nM; half-life at 0.5 µM [5]: 28 min |
| N#Cc1ccc2c(c1)CCN(c1ccc3[nH]nc(C4CC4)c3c1)C2=O | 5500 |  |
| CN(C)Cc1ccc(C(=O)Nc2ccc3[nH]nc(-c4ccoc4)c3c2)cc1 | 250 |  |
| Cc1n[nH]c2ccc(O[C@H]3CCc4cc(C#N)ccc43)cc12 | 14 |  |
| N#Cc1ccc(C(=O)Nc2ccc3[nH]nc(-c4ccoc4)c3c2)cc1 | 41 | efflux ratio (MDR1 (P-gp)): 1.9 |
| N#Cc1ccc2c(c1)CN(c1ccc3[nH]nc(C4CC4)c3c1)C2=O | 615 |  |
| Cc1n[nH]c2ccc(O[C@H]3CCCc4cc(C#N)ccc43)cc12 | 2.8 | IC50 [2]: 62 nM; half-life at 0.5 µM [3]: 18 min; efflux ratio (MDR1 (P-gp)): 1.3; IC50 [4]: 137 nM; half-life at 0.5 µM [5]: 35 min |
| N#Cc1ccc2c(c1)CC[C@@H]2Oc1ccc2[nH]nc(-c3cnco3)c2c1 | 0.4 | IC50 [2]: 8.3 nM; half-life at 0.5 µM [3]: 53 min; efflux ratio (MDR1 (P-gp)): 2.2; IC50 [4]: 27 nM; half-life at 0.5 µM [5]: 61 min |
